From article PMC11917140, “Mining the UniProtKB/Swiss‐Prot database for antimicrobial peptides” (Protein Science : A Publication of the Protein Society, 2025)
Where two headings read alike, the source gives them in different places. No end group written: not given here.

Key:
[1] = tested on: porcine red blood cells (RBCs); assay: Hemolysis assay; assay type: cell-based, pig; settings: 1% porcine RBCs in RPMI, 37°C 30–45 min, absorbance 415 nm, tested 1–128 μg/mL, 2% Triton-X100 = 100%; three independent experiments in duplicate, one maximum and one minimum data point dropped
Protocol: Hemolysis experiments were performed to evaluate the toxicity of the selected peptides to RBCs. Whole blood from healthy donor pigs was purchased from Lampire Biological Laboratories (Pipersville, PA, USA), and RBCs were washed and isolated by centrifugation using Roswell Park Memorial Institute (RPMI) medium (Life Technologies, Grand Island, NY, USA). Peptides were suspended and serially diluted from 1280 to 10 μg/mL using RPMI medium in a 96‐well polypropylene microtiter plate, and then combined with 100 μL of the 1% RBC solution, providing a final AMP testing range of 128 to 1 μg/mL. Plates were centrifuged after an incubation at 37°C for 30–45 min, and 1/2 volume from each supernatant was transferred to a new 96‐well plate. The absorbance of the wells was measured at 415 nm utilizing the Cytation 5 Cell Imaging Multimode Reader (BioTek, CA, USA), and the peptide concentration that lysed 50% of the RBCs (HC50) was used to determine the hemolytic activity. Absorbance readings from wells containing RBCs treated with 11 μL of a 2% Triton‐X100 solution or RPMI medium (AMP solvent‐only) were used to define 100% and 0% hemolysis, respectively. We note that all centrifugation steps were performed at 500× g for 5 min in an Allegra‐6R centrifuge (Beckman Coulter, CA, USA).

[2] = tested on: Staphylococcus aureus ATCC 29213; assay type: cell-based
Protocol: (§1) To measure the antimicrobial activity of our selected putative AMPs in vitro, broth microdilution assays were conducted to determine the minimum inhibitory and minimum bactericidal concentrations (MICs and MBCs, respectively), as outlined by the Clinical and Laboratory Standards Institute [CLSI] ([2015]). The adaptations for testing cationic AMPs, as described previously (Wiegand et al., [2008]), were incorporated. The selected peptides were tested against laboratory isolates of E. coli 25922 and S. aureus 29213, which were purchased from the American Type Culture Collection (ATCC; Manassas, VA, USA). Bacteria from frozen stocks were streaked onto nonselective Columbia blood agar with 5% sheep blood (Oxoid) and incubated for 18–24 h at 37°C. To ensure the uniform colony health before the assay, 2–4 colonies were streaked onto a new agar plate and incubated for another 18–24 h at 37°C on the next day. To create a standardized bacterial inoculum, isolated colonies were suspended in Mueller‐Hinton Broth (MHB; Sigma‐Aldrich, St. Louis, MO, USA). The suspension was adjusted to an optical density of 0.08–0.1 at 600 nm, which corresponds to a 0.5 McFarland standard of approximately 1–2 × 10^8 colony‐forming units (CFU)/mL. The inoculum was then diluted 1:250, resulting in a final concentration of 5 ± 3 × 10^5 CFU/mL. The target bacterial density was confirmed by measuring the total viability counts from the final tested inoculum.
(§2) The selected putative AMPs were purchased from and synthesized by GenScript (Piscataway, NJ, USA) in lyophilized format. The peptides were stored at −20°C and were suspended in sterile ultrapure water prior to testing. A two‐fold serial dilution of 1280 to 2.5 μg/mL was prepared in sterile 96‐well polypropylene microtiter plates (Greiner Bio‐One #650261, Kremsmünster, Austria). Then, 100 μL of the standardized bacterial inoculum was added to each well, resulting in a final AMP testing range of 128 to 0.25 μg/mL. The MIC values were determined as the lowest peptide concentration in which no visible bacterial growth was observed after a 20–24 h incubation at 37°C. To determine the MBC values, well contents of the MIC and the two adjacent wells containing the two‐ and four‐fold higher peptide concentrations were plated onto nonselective nutrient agar. The concentration in which 99.9% of the inoculum was killed after an incubation for 24 h at 37°C was reported as the MBC.
(§3) In our tests, we used Ranatuerin‐4—a known AMP from the American bullfrog (Goraya et al., [1998]), and an in‐house peptide [TKPKG]3 (OT15) as the positive and negative control peptides, respectively. We note that OT15 was truncated and derived from a negative control peptide [TKPKG]4 (OT20), not antimicrobial but sharing similar characteristics to AMPs, used in previous studies (Horváti et al., [2017]).

[3] = tested on: Escherichia coli ATCC 25922; assay type: cell-based; settings: for MBC, E. coli ATCC 25922: ATCC 25922, 24 h
Protocol: as §1, §2, §3

[4] = broth microdilution (CLSI, adapted for cationic AMPs), MHB, 5 ± 3 × 10^5 CFU/mL, 20–24 h at 37°C, tested 0.25–128 μg/mL, range from three independent experiments in duplicate, one maximum and one minimum data point dropped

Row | Sequence | HC50 (concentration that lyses 50% of RBCs), porcine RBCs [1] [µg/mL] | MIC, S. aureus ATCC 29213 [2, 4] [µg/mL] | MBC, S. aureus ATCC 29213 ([2]; concentration killing 99.9% of inoculum, plated on nutrient agar, 24 h at 37°C, range from three independent experiments in duplicate, one maximum and one minimum data point dropped) [µg/mL] | MIC, E. coli ATCC 25922 ([3]; ATCC 25922) [µg/mL] | MIC, E. coli ATCC 25922 [3, 4] [µg/mL] | MIC, S. aureus ATCC 29213 ([2]; ATCC 29213) [µg/mL] | MBC, S. aureus ATCC 29213 ([2]; ATCC 29213, 24 h) [µg/mL] | MBC, E. coli ATCC 25922 [3] [µg/mL]
1 | ILDKVRLWLARIRLNLLKR [PlVi1] | > 128 | – | – | – | – | – | – | –
2 | RSIIRNGIRTLTWRKETKRKKK [ArTh11] | – | > 128 | > 128 | 64 to 128 | 64 to 128 | – | – | –
3 | RFGRFLRKIRRFRPKVTITIQGSARFG [Chicken CATH-2, reference compound] | – | – | – | 8 to 16 | – | 32 | 32 | 8 to 16
4 | FWNLNKKKKFFYKTVKNSIGQVILRDMSNN [DiDi2] | – | – | – | 16 | – | > 128 | > 128 | 16
